# PMC7069796 (Breast cancer research and treatment, 2020)
# Target: T1, Estrogen Receptor Alpha (ERα) (Homo sapiens, UniProt P03372, Y537S)
# T1 sequence (P03372 282-595 Y537S): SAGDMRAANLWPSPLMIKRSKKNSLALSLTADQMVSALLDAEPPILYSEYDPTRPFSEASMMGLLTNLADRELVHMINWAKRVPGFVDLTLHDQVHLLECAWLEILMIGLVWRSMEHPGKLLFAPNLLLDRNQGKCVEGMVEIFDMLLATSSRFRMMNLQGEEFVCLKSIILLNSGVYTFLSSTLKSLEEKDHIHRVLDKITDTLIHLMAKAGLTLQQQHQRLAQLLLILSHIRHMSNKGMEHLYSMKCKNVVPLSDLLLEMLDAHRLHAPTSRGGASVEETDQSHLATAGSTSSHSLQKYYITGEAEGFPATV
# Assay: LanthaScreen TR-FRET competitive binding assay with purified GST-ERα LBD
smiles,measurement,value
CCC(=C(c1ccc(/C=C/C(=O)O)cc1)c1ccc(B(O)O)cc1)c1ccccc1 [GLL398],IC50,29.5 nM
